Counter-ions that a name gives are not always drawn.
Each molecule was assayed against T1, 5-HT1F receptor (Homo sapiens, UniProt P30939) (assay: biochemical). Conditions: Table I; displacement of 4.5-5.5 nM [3H]5-HT, 37° C., 30 minutes; read-out: 5-HT1F BINDING Ki.
T1 sequence (P30939 1-366): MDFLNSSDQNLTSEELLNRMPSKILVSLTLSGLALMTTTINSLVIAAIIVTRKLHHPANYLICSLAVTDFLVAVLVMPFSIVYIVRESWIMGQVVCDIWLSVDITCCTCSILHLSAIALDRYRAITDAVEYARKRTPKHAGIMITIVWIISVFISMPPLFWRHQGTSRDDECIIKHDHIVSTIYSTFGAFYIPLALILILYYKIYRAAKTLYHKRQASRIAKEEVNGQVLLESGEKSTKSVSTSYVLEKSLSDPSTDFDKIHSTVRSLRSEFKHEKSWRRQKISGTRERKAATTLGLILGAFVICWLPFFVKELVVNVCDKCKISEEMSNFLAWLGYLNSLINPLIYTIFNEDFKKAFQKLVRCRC
With `Cn1cc(CCN2CCC(c3c[nH]c4ccccc34)CC2)cn1` [Example 1, 3-<1-<2-<1-methyl-1H-pyrazol-4-yl>ethyl>-4-piperidinyl>-1H-indolehydrochloride] the Ki was 5.7 nM.
Molecule `Cn1cc(CCN2CCC(c3c[nH]c4ccc(Cl)cc34)CC2)cn1` [Example 3, 5-chloro-3-<1-<2-<1-methyl-1H-pyrazol-4-yl>ethyl>-4-piperidinyl>-1H-indolehydrochloride] has a Ki of 1.7 nM.
`Cn1cc(CCN2CCC(c3c[nH]c4ccc(Br)cc34)CC2)cn1` [Example 4, 5-bromo-3-<1-<2-<1-methyl-1H-pyrazol-4-yl>ethyl>-4-piperidinyl>-1H-indoleoxalate] was tested, and the Ki was 3 nM.
Work on `COc1ccc2[nH]cc(C3CCN(CCc4cnn(C)c4)CC3)c2c1` [Example 5, 5-methoxy-3-<1-<2-<1-methyl-1H-pyrazol-4-yl>ethyl>-4-piperidinyl>-1H-indoleoxalate] yielded a Ki of 9.9 nM.
With `CC(C)n1cc(CCN2CCC(c3c[nH]c4ccccc34)CC2)cn1` [Example 6, 3-<1-<2-<1-(1-methylethyl)-1H-pyrazol-4-yl>ethyl>-4-piperidinyl>-1H-indolehydrochloride] the Ki was 4.5 nM.
`CC(C)n1cc(CCN2CCC(c3c[nH]c4ccc(F)cc34)CC2)cn1` [Example 7, 5-fluoro-3-<1-<2-<1-(1-methylethyl)-1H-pyrazol-4-yl>ethyl>-4-piperidinyl>-1H-indole oxalate] gave a Ki of 4.9 nM.
`CC(C)n1cc(CCN2CCC(c3c[nH]c4ccc(Cl)cc34)CC2)cn1` [Example 8, 5-chloro-3-<1-<2-<1-(1-methylethyl)-1H-pyrazol-4-yl>ethyl>-4-piperidinyl>-1H-indole] showed a Ki of 4.1 nM.
With `CC(C)n1cc(CCN2CCC(c3c[nH]c4ccc(Br)cc34)CC2)cn1` [Example 9, 5-bromo-3-<1-<2-<1-(1-methylethyl)-1H-pyrazol-4-yl>ethyl>-4-piperidinyl>-1H-indole oxalate] the Ki was 5 nM.
With `COc1ccc2[nH]cc(C3CCN(CCc4cnn(C(C)C)c4)CC3)c2c1` [Example 10, 5-methoxy-3-<1-<2-<1-(1-methylethyl)-1H-pyrazol-4-yl>ethyl>-4-piperidinyl>- 1H-indole oxalate] the Ki was 6.2 nM.
Molecule `CCCn1cc(CCN2CCC(c3c[nH]c4ccccc34)CC2)cn1` [Example 12, 3-<1-<2-<1-propyl-1H-pyrazol-4-yl>ethyl>-4-piperidinyl>-1-H-indole oxalate] has a Ki of 3.3 nM.
Work on `CCCn1cc(CCN2CCC(c3c[nH]c4ccc(F)cc34)CC2)cn1` [Example 13, 5-fluoro-3-<1-<2-<1-propyl-1H-pyrazol-4-yl>ethyl>-4-piperidinyl>-1H-indoleoxalate] yielded a Ki of 6 nM.
With `CCCn1cc(CCN2CCC(c3c[nH]c4ccc(Cl)cc34)CC2)cn1` [Example 14, 5-chloro-3-<1-<2-<1-propyl-1H-pyrazol-4-yl>ethyl>-4-piperidinyl>-1H-indoleoxalate] the Ki was 5.7 nM.
In the case of `CCCn1cc(CCN2CCC(c3c[nH]c4ccc(Br)cc34)CC2)cn1` [Example 15, 5-bromo-3-<1-<2-<1-propyl-1H-pyrazol-4-yl>ethyl>-4-piperidinyl>-1H-indoleoxalate], the Ki is reported as 6.6 nM.
Work on `c1ccc2c(C3CCN(CCc4cnn(C5CCCCC5)c4)CC3)c[nH]c2c1` [Example 16, 3-<1-<2-<1-cyclohexyl-1H-pyrazol-4-yl>ethyl>-4-piperidinyl>-1H-indoleoxalate] yielded a Ki of 43.8 nM.
`Fc1ccc2[nH]cc(C3CCN(CCc4cnn(C5CCCCC5)c4)CC3)c2c1` [Example 17, 5-fluoro-3-<1-<2-<1-cyclohexyl-1H-pyrazol-4-yl>ethyl>-4-piperidinyl>-1H-indole oxalate] showed a Ki of 33.2 nM.
`Clc1ccc2[nH]cc(C3CCN(CCc4cnn(C5CCCCC5)c4)CC3)c2c1` [Example 18] was tested, and the Ki was 34 nM.
In the case of `Brc1ccc2[nH]cc(C3CCN(CCc4cnn(C5CCCCC5)c4)CC3)c2c1` [Example 19], the Ki is reported as 49.4 nM.
For `Fc1ccc2[nH]cc(C3CCN(CCc4cnn(CC5CC5)c4)CC3)c2c1` [Example 20, 5-fluoro-3-<1-<2-<1-cyclopropylmethyl-1H-pyrazol-4-yl>ethyl>-4-piperidinyl>-1H-indole hydrochloride], the Ki was 8.9 nM.
With `Clc1ccc2[nH]cc(C3CCN(CCc4cnn(CC5CC5)c4)CC3)c2c1` [Example 21, 5-chloro-3-<1-<2-<1-cyclopropylmethyl-1H-pyrazol-4-yl>ethyl>-4-piperidinyl>-1H-indole hydrochloride] the Ki was 14.5 nM.
For `Fc1ccc2[nH]cc(C3CCN(CCc4cnn(Cc5ccccc5)c4)CC3)c2c1` [Example 22, 5-fluoro-3-<1-<2-<1-benzyl-1H-pyrazol-4-yl>ethyl>-4-piperidinyl>-1H-indolehydrochloride], the Ki was 52.5 nM.
`c1ccc(-n2cc(CCN3CCC(c4c[nH]c5ccccc45)CC3)cn2)cc1` [Example 23, 3-<1-<2-<1-phenyl-1H-pyrazol-4-yl>ethyl>-4-piperidinyl>-1H-indolehydrochloride] gave a Ki of 4.3 nM.
With `Fc1ccc2[nH]cc(C3CCN(CCc4cnn(-c5ccccc5)c4)CC3)c2c1` [Example 24, 5-fluoro-3-<1-<2-<1-phenyl-1H-pyrazol-4-yl>ethyl>-4-piperidinyl>-1H-indoleoxalate] the Ki was 5.5 nM.
With `Clc1ccc2[nH]cc(C3CCN(CCc4cnn(-c5ccccc5)c4)CC3)c2c1` [Example 25, 5-chloro-3-<1-<2-<1-phenyl-1H-pyrazol-4-yl>ethyl>-4-piperidinyl>-1H-indoleoxalate] the Ki was 6.9 nM.
Work on `Brc1ccc2[nH]cc(C3CCN(CCc4cnn(-c5ccccc5)c4)CC3)c2c1` [Example 26, 5-bromo-3-<1-<2-<1-phenyl-1H-pyrazol-4-yl>ethyl>-4-piperidinyl>-1H-indoleoxalate] yielded a Ki of 13.8 nM.
For `COc1ccc2[nH]cc(C3CCN(CCc4cnn(-c5ccccc5)c4)CC3)c2c1` [Example 27, 5-methoxy-3-<1-<2-<1-phenyl-1H-pyrazol-4-yl>ethyl>-4-piperidinyl>-1H-indoleoxalate], the Ki was 9.5 nM.
For `NC(=O)c1ccc2[nH]cc(C3CCN(CCc4cnn(-c5ccccc5)c4)CC3)c2c1` [Example 28, 5-carboxamido-3-<1-<2-<1-phenyl-1H-pyrazol-4-yl>ethyl>-4-piperidinyl>-1H-indole], the Ki was 24 nM.
`Fc1ccccc1-n1cc(CCN2CCC(c3c[nH]c4ccc(Cl)cc34)CC2)cn1` [Example 29, 5-chloro-3-<1-<2-<1-(2-fluorophenyl)-1H-pyrazol-4-yl>ethyl>-4-piperidinyl>- 1H-indole] was tested, and the Ki was 10.4 nM.
Molecule `Fc1cccc(-n2cc(CCN3CCC(c4c[nH]c5ccc(Cl)cc45)CC3)cn2)c1` [Example 30, 5-chloro-3-<1-<2-<1-(3-fluorophenyl)-1H-pyrazol-4-yl>ethyl>-4-piperidinyl>- 1H-indole oxalate] has a Ki of 51 nM.
Work on `Fc1ccc(-n2cc(CCN3CCC(c4c[nH]c5ccc(Cl)cc45)CC3)cn2)cc1` [Example 31, 5-chloro-3-<1-<2-<1-(4-fluorophenyl)-1H-pyrazol-4-yl>ethyl>-4-piperidinyl>- 1H-indole oxalate] yielded a Ki of 11.5 nM.
`Clc1ccc2[nH]cc(C3CCN(CCc4cnn(-c5ccccc5Cl)c4)CC3)c2c1` [Example 32, 5-chloro-3-<1-<2-<1-(2-chlorophenyl)-1H-pyrazol-4-yl>ethyl>-4-piperidinyl>- 1H-indole oxalate] showed a Ki of 44.1 nM.
`Clc1cccc(-n2cc(CCN3CCC(c4c[nH]c5ccc(Cl)cc45)CC3)cn2)c1` [Example 33, 5-chloro-3-<1-<2-<1-(3-chlorophenyl)-1H-pyrazol-4-yl>ethyl>-4-piperidinyl>- 1H-indole oxalate] showed a Ki of 85.5 nM.
In the case of `Clc1ccc(-n2cc(CCN3CCC(c4c[nH]c5ccc(Cl)cc45)CC3)cn2)cc1` [Example 34, 5-chloro-3-<1-<2-<1-(4-chlorophenyl)-1H-pyrazol-4-yl>ethyl>-4-piperidinyl>- 1H-indole], the Ki is reported as 161 nM.
In the case of `Clc1ccc2[nH]cc(C3CCN(CCc4cnn(-c5ccccc5Br)c4)CC3)c2c1` [Example 35, 5-chloro-3-<1-<2-<1-(2-bromophenyl)-1H-pyrazol-4-yl>ethyl>-4-piperidinyl>-1H-indole oxalate], the Ki is reported as 48.4 nM.
Work on `Clc1ccc2[nH]cc(C3CCN(CCc4cnn(-c5cccc(Br)c5)c4)CC3)c2c1` [Example 36, 5-chloro-3-<1-<2-<1-(3-bromophenyl)-1H-pyrazol-4-yl>ethyl>-4-piperidinyl>-1H-indole oxalate] yielded a Ki of 142 nM.
With `Clc1ccc2[nH]cc(C3CCN(CCc4cnn(-c5ccc(Br)cc5)c4)CC3)c2c1` [Example 37, 5-chloro-3-<1-<2-<1-(4-bromophenyl)-1H-pyrazol-4-yl>ethyl>-4-piperidinyl>-1H-indole] the Ki was 65.6 nM.
With `Clc1ccc2[nH]cc(C3CCN(CCc4cnn(-c5ccc(I)cc5)c4)CC3)c2c1` [Example 38, 5-chloro-3-<1-<2-<1-(4-iodophenyl)-1H-pyrazol-4-yl>ethyl>-4-piperidinyl>-1H-indole oxalate] the Ki was 77.4 nM.
`COc1ccccc1-n1cc(CCN2CCC(c3c[nH]c4ccc(Cl)cc34)CC2)cn1` [Example 39, 5-chloro-3-<1-<2-<1-(2-methoxyphenyl)-1H-pyrazol-4-yl>ethyl>-4-piperidinyl>-1H-indole oxalate] showed a Ki of 63.5 nM.
In the case of `COc1ccc(-n2cc(CCN3CCC(c4c[nH]c5ccc(Cl)cc45)CC3)cn2)cc1` [Example 40, 5-chloro-3-<1-<2-<1-(4-methoxyphenyl)-1H-pyrazol-4-yl>ethyl>-4-piperidinyl>-1H-indole], the Ki is reported as 12.7 nM.

Same assay, conditions: read-out: 5-HT1F BINDING Ki
For `CC(C)n1cc(CCN2CCC(c3c[nH]c4ccc(C(N)=O)cc34)CC2)cn1` [Example 11, 5-carboxamido-3-<1-<2-<1-(1-methylethyl)-1H-pyrazol-4-yl>ethyl>-4-piperidinyl>-1H-indole], the Ki was 10.3 nM.
